Measurements from patent US12528790B2, “Amide derivative having antiviral activity” (Shionogi & Co., Ltd., priority 2020, dated 2026).
pEC50: −log10 of the molar value. Where two headings read alike, the source gives them in different places.

Tested on: RSV A2 strain
Assay: In vitro CPE (CytoPathic Effect) inhibition effect evaluation test, RSV type A
Type: cell-based
Conditions: inhibitory effect against RSV type A (RSV A2 strain), HEp-2 cells, CPE inhibition, read-out: EC50
Summary of the method: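 HEp-2 cells (2.4×10^5 cells/mL, 2% FBS E-MEM) were infected with RSV alongside 3-fold compound dilutions and incubated at 37 °C, 4 days for A2 and 5 days for B Wash/18537. Viable cells quantified by CellTiter-Glo 2.0 luminescence; EC50 by nonlinear regression as 50% CPE inhibition.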

[1] = human respiratory syncytial virus

Structure (SMILES)	pEC50 [1]	pEC50
CC(=O)N1CCC(Oc2ccc3c(c2)CCN3c2ncc(C(=O)NC3(C(=O)O)CCCCC3)c(C(F)(F)F)n2)CC1 [Compound I-64]	5.30 to 7.00	
COc1ccc(CCc2ccc3c(c2)CCN3c2ncc(C(=O)NC3(C(=O)O)CCCCC3)c(C(F)(F)F)n2)cc1 [Compound I-25]	7.00 to 8.00	
COc1ccccc1-n1cc(-c2ccc(C(=O)NC3(C(=O)O)C4CC5CC(C4)CC3C5)c(C(F)(F)F)n2)c2ccc(OC3CCN(c4ncccn4)CC3)cc21 (stereo not shown) [Compound I-318]		> 8.00
COc1ccc2c(c1)C1(CCOCC1)CN2c1ncc(C(=O)NC2(C(=O)O)CCCCC2)c(C(F)(F)F)n1 [Compound I-76]	7.00 to 8.00	
Cc1cccnc1-n1cc(-c2ccc(C(=O)NC3(C(=O)O)C4CC5CC(C4)CC3C5)c(C(F)(F)F)n2)c2ccc(OC3CCN(c4ncccn4)CC3)cc21 (stereo not shown) [Compound I-311]		> 8.00
CC1CN(c2ncccn2)CCC1Oc1ccc2c(-c3ncc(C(=O)NC4(C(=O)O)C5CC6CC(C5)CC4C6)c(C(F)(F)F)n3)cn(C3CCC(F)(F)CC3)c2c1 (single isomer, unassigned) [Compound I-392]		> 8.00
O=C(Nc1ccc2c(c1)C1(CCOCC1)CN2c1ncc(C(=O)NC2(C(=O)O)C3CC4CC(C3)CC2C4)c(C(F)(F)F)n1)c1ccccc1 (stereo not shown) [Compound I-323]		> 8.00
O=C(NC1(C(=O)O)C2CC3CC(C2)CC1C3)c1cnc(N2CC3(CCOCC3)c3cc(NS(=O)(=O)c4ccccc4)ccc32)nc1C(F)(F)F (stereo not shown) [Compound I-342]		5.30 to 7.00
O=C(NC1(C(=O)O)C2CC3CC(C2)CC1C3)c1ccc(-c2cn(-c3ccccc3C(F)(F)F)c3cc(OC4CCN(c5ncccn5)CC4)ccc23)nc1C(F)(F)F (stereo not shown) [Compound I-327]		> 8.00
O=C(NC1(C(=O)O)C2CC3CC(C2)CC1C3)c1cnc(N2CC3(CC4CCC(C3)O4)c3cc(OC4CCN(c5ncccn5)CC4)ccc32)nc1C(F)(F)F (single isomer, unassigned) [Compound I-300]		> 8.00
COC(=O)N1CCC(NC(=O)c2cnc(N3CC4(CCOCC4)c4cc(OC5CCN(c6ncccn6)CC5)ccc43)nc2C(F)(F)F)(C(=O)O)CC1 [Compound I-145]	7.00 to 8.00	
CC(C)(C)OC(=O)N1CCC(NC(=O)c2cnc(N3CC4(CCOCC4)c4cc(OC5CCN(c6ncccn6)CC5)ccc43)nc2C(F)(F)F)(C(=O)O)CC1 [Compound I-140]	7.00 to 8.00	
O=C(NC1(C(=O)O)CCCCC1)c1cnc(N2CCc3cc(C4=CCCN(Cc5ccccc5)C4)ccc32)nc1C(F)(F)F [Compound I-70]	7.00 to 8.00	
Cn1ncc2c1CCC(Oc1ccc3c(c1)C1(CCOCC1)CN3c1ncc(C(=O)NC3(C(=O)O)C4CC5CC(C4)CC3C5)c(C(F)(F)F)n1)C2 (single isomer, unassigned) [Compound I-191]		> 8.00
CS(=O)(=O)CCN1CCC(Oc2ccc3c(-c4ncc(C(=O)NC5(C(=O)O)C6CC7CC(C6)CC5C7)c(C(F)(F)F)n4)cn(C4CCC(F)(F)CC4)c3c2)CC1 (stereo not shown) [Compound I-254]	7.00 to 8.00	
O=C(NC1(C(=O)O)CCCCC1)c1cnc(N2CC3(CC3)c3cc(Br)ccc32)nc1C(F)(F)F [Compound I-10]	5.30 to 7.00	

Structure (SMILES)	pEC50 [1]	pEC50
O=C(NC1(C(=O)O)C2CC3CC1CC(O)(C3)C2)c1cnc(N2CCc3cc(OCCC4CCOCC4)ccc32)nc1C(F)(F)F (single isomer, unassigned) [Compound I-97]		7.00 to 8.00
NC(=O)C1CC1c1ccc2c(c1)CCN2c1ncc(C(=O)NC2(C(=O)O)C3CC4CC(C3)CC2C4)c(C(F)(F)F)n1 (racemic) [Compound I-215]	7.00 to 8.00	
COc1cccc(COc2ccc3c(c2)CCN3c2ncc(C(=O)NC3(C(=O)O)CC4CCC3C4)c(C(F)(F)F)n2)c1 (single isomer, unassigned) [Compound I-19]		> 8.00
O=C(NC1(C(=O)O)C2CC3CC(C2)CC1C3)c1ccc(-c2cn(-c3ncccc3F)c3cc(OC4CCN(c5ncccn5)CC4)ccc23)nc1C(F)(F)F (stereo not shown) [Compound I-310]		> 8.00
O=C(NC1(C(=O)O)C2CC3CC(C2)CC1C3)c1cnc(N2CC3(CCOCC3)c3cc4c(cc32)OC(F)(F)O4)nc1C(F)(F)F (stereo not shown) [Compound I-299]		7.00 to 8.00
O=C(NC1(C(=O)O)C2CC3CC(C2)CC1C3)c1cnc(-c2cn(C3CCC(F)(F)CC3)c3ccc(OC4CCN(C5COC5)CC4)cc23)nc1C(F)(F)F (stereo not shown) [Compound I-225]	7.00 to 8.00	
O=C(NC1(C(=O)O)C2CC3CC(C2)CC1C3)c1cnc(N2CC3(CCOCC3)c3nc(OC4CCN(c5ncccn5)CC4)ccc32)nc1C(F)(F)F (stereo not shown) [Compound I-107]		> 8.00
O=C(NC1(C(=O)O)C2CC3CC(C2)CC1C3)c1cnc(-c2cn(C3CCC(F)(F)CC3)c3cc(OC4CCN(c5ncccc5F)CC4)ccc23)nc1C(F)(F)F (stereo not shown) [Compound I-241]	> 8.00	
O=C(NC1(C(=O)O)C2CC3CC(C2)CC1C3)c1cnc(-c2cn(C3CCC(F)(F)CC3)c3cc(O[C@@H]4CCN(CC(F)(F)F)C4)ccc23)nc1C(F)(F)F (stereo partly shown) [Compound I-374]	> 8.00	
O=C(NC1(C(=O)O)C2CC3CC(C2)CC1C3)c1cnc(-c2cn(C3CCC(F)(F)CC3)c3cc(C(=O)N4CCC(N5CC(F)(F)C5)CC4)ccc23)nc1C(F)(F)F (stereo not shown) [Compound I-416]	> 8.00	
COc1cccc(CCc2ccc3c(c2)CCN3c2ncc(C(=O)NC3(C(=O)O)CCCCC3)c(C(F)(F)F)n2)c1 [Compound I-26]	7.00 to 8.00	
COc1ccc2c(c1)CCN2c1ncc(C(=O)NC2(C(=O)O)C3CC4CC(C3)CC2C4)c(C(F)(F)F)n1 (stereo not shown) [Compound I-68]		7.00 to 8.00
CN(CC(F)(F)F)[C@H]1CC[C@H](Oc2ccc3c(-c4ncc(C(=O)NC5(C(=O)O)C6CC7CC(C6)CC5C7)c(C(F)(F)F)n4)cn(C4CCC(F)(F)CC4)c3c2)CC1 (stereo partly shown) [Compound I-450]	> 8.00	
Cc1ccc2c(c1)C1(CCN(c3ncccn3)CC1)CN2c1ncc(C(=O)NC2(C(=O)O)C3CC4CC(C3)CC2C4)c(C(F)(F)F)n1 (stereo not shown) [Compound I-139]	> 8.00	
O=C(NC1(C(=O)O)CCOCC1)c1cnc(N2CCc3cc(OC4CCN(c5ncccn5)CC4)ccc32)nc1C(F)(F)F [Compound I-47]	7.00 to 8.00	
COC12CC3CC(C1)C(NC(=O)c1cnc(N4CC5(CCOCC5)c5cc(OC6CCN(c7ncccn7)CC6)ccc54)nc1C(F)(F)F)(C(=O)O)C(C3)C2 (single isomer, unassigned) [Compound I-210]	> 8.00	

The next lines start with the values.

pEC50 [1]	pEC50	Structure (SMILES)
> 8.00		COc1ccc2c(c1)C1(CCOCC1)CN2c1ccc(C(=O)NC2(C(=O)O)C3CC4CC(C3)CC2C4)c(C(F)(F)F)n1 (stereo not shown) [Compound I-121]
> 8.00		O=C(NC1(C(=O)O)C2CC3CC(C2)CC1C3)c1cnc(N2CC3(CCCC3)c3cc(O[C@H]4CC[C@H](N5CC(F)(F)C5)CC4)ccc32)nc1C(F)(F)F (stereo partly shown) [Compound I-462]
> 8.00		COc1cccc(COc2ccc3c(n2)C2(CCOCC2)CN3c2ncc(C(=O)NC3(C(=O)O)CCCCC3)c(C(F)(F)F)n2)c1 [Compound I-103]
> 8.00		O=C(NC1(C(=O)O)C2CC3CC(C2)CC1C3)c1ccc(-c2cn(-c3ccc(F)cn3)c3cc(OC4CCN(c5ncccn5)CC4)ccc23)nc1C(F)(F)F (stereo not shown) [Compound I-290]
> 8.00		O=C(NC1(C(=O)O)C2CC3CC(C2)CC1C3)c1cnc(-c2cn(C3CCC(F)(F)CC3)c3cc(O[C@@H]4CCN(C5COC5)C4)ccc23)nc1C(F)(F)F (stereo partly shown) [Compound I-246]
> 8.00		O=C(NC1(C(=O)O)C2CC3CC(C2)CC1C3)c1cnc(N2CC3(CCCCC3)c3cc(OC4CCN(c5ncc(F)cn5)CC4)ccc32)nc1C(F)(F)F (stereo not shown) [Compound I-383]
> 8.00		CC(C)N1CCC(Oc2ccc3c(c2)C2(CCOCC2)CN3c2ncc(C(=O)NC3(C(=O)O)C4CC5CC(C4)CC3C5)c(C(F)(F)F)n2)CC1 (stereo not shown) [Compound I-209]
> 8.00		Cn1ccc(CCOc2ccc3c(-c4ncc(C(=O)NC5(C(=O)O)C6CC7CC(C6)CC5C7)c(C(F)(F)F)n4)cn(C4CCC(F)(F)CC4)c3c2)n1 (stereo not shown) [Compound I-366]
> 8.00		O=C(NC1(C(=O)O)C2CC3CC(C2)CC1C3)c1cnc(N2CC3(CCOCC3)c3cc(CCCC4CCOCC4)ccc32)nc1C(F)(F)F (stereo not shown) [Compound I-114]
> 8.00		O=C(NC1(C(=O)O)C2CC3CC(C2)CC1C3)c1ccc(-c2cn(C3CCCC3)c3cc(OC4CCN(c5ncccn5)CC4)ccc23)nc1C(F)(F)F (stereo not shown) [Compound I-289]
> 8.00		COCCN1CCC(Oc2ccc3c(-c4ncc(C(=O)NC5(C(=O)O)C6CC7CC(C6)CC5C7)c(C(F)(F)F)n4)cn(C4CCC(F)(F)CC4)c3c2)CC1 (stereo not shown) [Compound I-253]
> 8.00		O=C(NC1(C(=O)O)CCCCC1)c1cnc(N2CCc3cc(OC4CCN(c5nccs5)CC4)ccc32)nc1C(F)(F)F [Compound I-42]
> 8.00		O=C(NC1(C(=O)O)C2CC3CC(C2)CC1C3)c1cnc(N2CC3(CCOCC3)c3cc(OC4CN(C(=O)OCc5ccccc5)C4)ccc32)nc1C(F)(F)F (stereo not shown) [Compound I-224]
> 8.00		O=C(NC1(C(=O)O)C2CC3CC(C2)CC1C3)c1cnc(N2CC3(CCOCC3)c3cc(OC4CCN(c5ncccn5)CC4)ccc32)nc1C(F)(F)CO (stereo not shown) [Compound I-205]
> 8.00		O=C(NC1(C(=O)O)C2CC3CC(C2)CC1C3)c1cnc(-c2cn(C3CCC(F)(F)CC3)c3cc(OC4CCN(c5ncc(F)cc5F)CC4)ccc23)nc1C(F)(F)F (stereo not shown) [Compound I-432]
> 8.00		O=C(NC1(C(=O)O)C2CC3CC(C2)CC1C3)c1ccc(-c2cn(-c3cnccn3)c3cc(OC4CCN(c5ncccn5)CC4)ccc23)nc1C(F)(F)F (stereo not shown) [Compound I-198]
> 8.00		O=C(NC1(C(=O)O)C2CC3CC(C2)CC1C3)c1cnc(N2CC3(CCOCC3)c3cc(C4=CCCC4)ccc32)nc1C(F)(F)F (stereo not shown) [Compound I-128]
> 8.00		O=C(NC1(C(=O)O)C2CC3CC(C2)CC1C3)c1cnc(N2CC3(CCOCC3)c3cc(OCC(F)(F)F)ccc32)nc1C(F)(F)F (stereo not shown) [Compound I-381]
> 8.00		O=C(NC1(C(=O)O)CCCC1)c1cnc(N2CCc3cc(OC4CCN(c5ncccn5)CC4)ccc32)nc1C(F)(F)F [Compound I-48]
> 8.00		O=C(NC1(C(=O)O)C2CC3CC(C2)CC1C3)c1cnc(N2CCc3cc(OCCC4CCOCC4)ccc32)nc1C(F)(F)C(F)(F)F (stereo not shown) [Compound I-180]
